Consider two compounds from patent US9492493B2, “Softgel of NLKJ for treating prostate diseases” (priority 2003, dated 2016).

Data set [1] is described as follows: Body weight of tumor-bearing nude mice (Experiment Example 1). It is filed as in vivo, BALB/C nude mice. The following applies: 100 mg/kg, ip × 3 (d 1, 5, 9). From the text: (§1) The treatment started from the second day after inoculation. […] The weights of tumors were compared among the groups. The result was judged based on the formula: […]
Data set [2] concerns Human prostate cancer (PC-3M). Nature of the data set: Inhibition of NLKJ softgels on the growth of human prostate cancer in an animal model (Experiment Example 1). The settings on record: 100 mg/kg, ip × 3 (d 1, 5, 9); 21th day after inoculation. It is filed as in vivo. The protocol:
Inhibition of NLKJ Softgels on the Growth of Human Prostate Cancer in an Animal Model
NLKJ softgels (NLKJ for injection), Batch No. 20010412;
Kanglaite Injection (Product of Zhejiang Kanglaite Pharmaceutical Co. LTD, containing NLKJ 10 g/100 ml), Batch No. 0011281-1.
Grafting Tumor: Human prostate cancer (PC-3M), subcultured by Pharmacological Department, Shanghai Institute of Pharmaceutical Industry.
1) Control Group (Normal saline);
2) NLKJ softgel (5 ml/kg, p.o.×10 d);
3) NLKJ softgel (10 ml/kg, p.o.×10 d);
4) Kanglaite Injection (25 ml/kg, i.v.×10 d);
5) Cyclophamide (CTX) (100 mg/kg, ip.×3 (d1, d5, d9)).
as §1
IR: Inhibition Rate of Tumor; Xcon: Average weight of tumors of the control group; Xtreat: Average weight of tumors of the treatment group.

Data set [3] concerns Human prostate cancer (PC-3M). Nature of the data set: Inhibition of NLKJ softgels in combination with Lupron on the growth of human prostate cancer in animal models (Experiment Example 2). The following applies: sc × 1, 21th day after inoculation. It is filed as in vivo. An excerpt: Inhibition of NLKJ Softgels in Combination with Lupron on the Growth of Human Prostate Cancer in Animal Models […] for injection), Batch No. 011209; Lupron (Takeda Chemical Industries, Ltd., Osaka, Japan 541), Batch No. 47978 AP. […] Grafting Tumor: Human prostate cancer (PC-3M), subcultured by Pharmacological Department, Shanghai Institute of Pharmaceutical Industry. […] The weights of tumors were compared among the groups.

For `O=P1(N(CCCl)CCCl)NCCCO1` (centres unmarked) [CTX, Cyclophamide], in data set [1] (beginning), the “Body weight (g) Beg” value was found to be 17.0 g. The “Body weight (g) End” value in data set [1] (end) is on record as 17.8 g. Besides, in data set [2], the “Inhibition Rate(%)” value was 92.47% and the “Tumor Weight(g) (x ± SD)” value came out at 0.12 ± 0.04 g.

Take `CCNC(=O)[C@@H]1CCCN1C(=O)[C@H](CCCNC(=N)N)NC(=O)[C@H](CC(C)C)NC(=O)[C@@H](CC(C)C)NC(=O)[C@H](Cc1ccc(O)cc1)NC(=O)[C@H](CO)NC(=O)[C@H](Cc1c[nH]c2ccccc12)NC(=O)[C@H](Cc1c[nH]cn1)NC(=O)[C@@H]1CCC(=O)N1` [Lupron, leuprolide acetate]: in data set [3] (0.75 mg/kg), the “Inhibition Rate(%)” value is 37.08% and the “Tumor Weight(g) (x ± SD)” value is on record as 0.93 ± 0.23 g. Further, in data set [3] (1.50 mg/kg), the “Inhibition Rate(%)” value worked out at 48.31% and the “Tumor Weight(g) (x ± SD)” value was found to be 0.77 ± 0.14 g.
